Assay [1] has as its target T1, PCSK9 (Homo sapiens, UniProt Q8NBP7). Kind of assay: Fluorescence polarization competition binding assay (probe: compound of Example 57). To be noted: 2 μM PCSK9, 50 nM compound of Example 57 as probe, overnight incubation; read-out: FP IC. In a few lines:
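Competition fluorescence-polarization binding: 2 μM PCSK9 with 50 nM fluorescent probe in 20 mM HEPES pH 7.5, 150 mM NaCl, 1 mM CaCl2, 0.005% P-20, incubated with test compound overnight in the dark. Anisotropy read; % inhibition relative to DMSO wells and probe-without-PCSK9 wells.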

The target in assay [2] is T1, PCSK9. Kind of assay: Differential scanning calorimetry (DSC) assay, direct binding / thermal stabilization of PCSK9. To be noted: Tm(with compound)−Tm(no compound); 2 μM PCSK9, 300 μM test compound. An outline of the steps:
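Thermal stabilization of 2 μM PCSK9 with or without 300 μM compound in 25 mM HEPES pH 7.5, 150 mM NaCl, 1 mM CaCl2, 3.75% DMSO. Sample heated 20–80 °C at 200 °C/hr against buffer reference. Protein Tm derived from each thermogram.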
(Differential scanning calorimetry records heat flow against a reference as temperature is scanned.)

The ΔTm is the change in melting temperature against a reference sample.

T1 sequence (Q8NBP7 153-692): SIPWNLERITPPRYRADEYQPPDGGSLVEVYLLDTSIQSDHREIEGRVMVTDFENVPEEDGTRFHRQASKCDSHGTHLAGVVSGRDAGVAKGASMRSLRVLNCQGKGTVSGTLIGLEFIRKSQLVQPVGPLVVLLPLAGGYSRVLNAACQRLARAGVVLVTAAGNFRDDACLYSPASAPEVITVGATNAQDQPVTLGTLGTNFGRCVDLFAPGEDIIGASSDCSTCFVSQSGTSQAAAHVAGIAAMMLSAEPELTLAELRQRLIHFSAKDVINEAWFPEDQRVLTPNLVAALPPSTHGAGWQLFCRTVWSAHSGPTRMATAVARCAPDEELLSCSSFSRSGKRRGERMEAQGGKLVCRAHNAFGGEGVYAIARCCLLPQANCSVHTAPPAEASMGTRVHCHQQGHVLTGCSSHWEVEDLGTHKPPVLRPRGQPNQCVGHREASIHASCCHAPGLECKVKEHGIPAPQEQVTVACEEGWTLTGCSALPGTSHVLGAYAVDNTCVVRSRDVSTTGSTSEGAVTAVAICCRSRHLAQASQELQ

With `CC(C)(C)c1cc(NC(=O)c2ccc(Oc3cc4c(cc3OCC3CCCCO3)CCN[C@]4(C)CC(=O)Nc3nccs3)cc2F)[nH]n1` (stereo partly drawn) [Example 76, N-(3-(tert-butyl)-1H-pyrazol-5-yl)-2-fluoro-4-(((1R)-1-methyl-1-(2-oxo-2-(thiazol-2-ylamino)ethyl)-6-((tetrahydro-2H-pyran-2-yl)methoxy)-1,2,3,4-tetrahydroisoquinolin-7-yl)oxy)benzamide], the IC50 at PCSK9 [1] stood at 535 nM. Besides, the ΔTm at 300 µM at PCSK9 [2] came to 7.92 °C.

Turning to `C[C@]1(CC(=O)Nc2nccs2)NCCc2cc(OCC3CCCCO3)c(Oc3ccc(C(=O)Nc4n[nH]c5ncccc45)c(F)c3)cc21` (stereo partly drawn) [Example 78, 2-fluoro-4-(((1R)-1-methyl-1-(2-oxo-2-(thiazol-2-ylamino)ethyl)-6-((tetrahydro-2H-pyran-2-yl)methoxy)-1,2,3,4-tetrahydroisoquinolin-7-yl)oxy)-N-(1H-pyrazolo[3,4-b]pyridin-3-yl)benzamide], the IC50 at PCSK9 [1] worked out at 604 nM. Moreover, the “DSC ΔTm” value on PCSK9 [2] came to 6.67 °C.

`C[C@]1(CC(=O)Nc2nccs2)NCCc2cc(OCC3CCCCO3)c(Oc3cccc(F)c3)cc21` (stereo partly drawn) [Example 79, 2-((1R)-7-(3-fluorophenoxy)-1-methyl-6-((tetrahydro-2H-pyran-2-yl)methoxy)-1,2,3,4-tetrahydroisoquinolin-1-yl)-N-(thiazol-2-yl)acetamide]: at PCSK9 [1], the IC50 amounted to 823 nM. Moreover, the ΔTm at 300 µM on PCSK9 [2] was 6.76 °C.

With `C[C@]1(CC(=O)Nc2nccs2)NCCc2cc(OCC3CCCO3)c(Oc3cccc(F)c3)cc21` (stereo partly drawn) [Example 82, 2-((1R)-7-(3-fluorophenoxy)-1-methyl-6-((tetrahydrofuran-2-yl)methoxy)-1,2,3,4-tetrahydroisoquinolin-1-yl)-N-(thiazol-2-yl)acetamide], the IC50 at PCSK9 [1] turned out to be 721 nM. In addition, the ΔTm at 300 µM on PCSK9 [2] came out at 7.47 °C.

For the compound `C[C@]1(CC(=O)Nc2nccs2)NCCc2cc(OCc3ccccn3)c(Oc3cccc(F)c3)cc21` [Example 83, (R)-2-(7-(3-fluorophenoxy)-1-methyl-6-(pyridin-2-ylmethoxy)-1,2,3,4-tetrahydroisoquinolin-1-yl)-N-(thiazol-2-yl)acetamide], the IC50 at PCSK9 [1] stood at 852 nM. For the same compound, on PCSK9 [2], the ΔTm at 300 µM turned out to be 5.2 °C.

Take `C[C@]1(CC(=O)Nc2nccs2)NCCc2cc(OCc3ncccc3F)c(Oc3cccc(F)c3)cc21` [Example 84, (R)-2-(7-(3-fluorophenoxy)-6-((3-fluoropyridin-2-yl)methoxy)-1-methyl-1,2,3,4-tetrahydroisoquinolin-1-yl)-N-(thiazol-2-yl)acetamide]: the IC50 on PCSK9 [1] stood at 943 nM. The ΔTm at 300 µM at PCSK9 [2] came to 6.32 °C.

For `COc1cccc(NC(=O)C[C@@]2(C)NCCc3cc(OCC4CCCCO4)c(Oc4ccc(-c5ccc(C(=O)O)cc5)c(F)c4)cc32)c1` (stereo partly shown) [Example 85], the IC50 at PCSK9 [1] worked out at 170 nM. The ΔTm at 300 µM at PCSK9 [2] came to 9.62 °C.

Take `COc1cccc(NC(=O)C[C@@]2(C)NCCc3cc(OCC4CCCCO4)c(Oc4ccc(Br)c(F)c4)cc32)c1` (stereo partly drawn) [Example 86, 2-((1R)-7-(4-bromo-3-fluorophenoxy)-1-methyl-6-((tetrahydro-2H-pyran-2-yl)methoxy)-1,2,3,4-tetrahydroisoquinolin-1-yl)-N-(3-methoxyphenyl)acetamide]: the IC50 at PCSK9 [1] is 1.17 nM. Besides, the ΔTm at 300 µM on PCSK9 [2] is 6.18 °C.

For `COc1cccc(NC(=O)C[C@@]2(C)NCCc3cc(OCC4CCCCO4)c(Oc4ccc(Br)c(F)c4)cc32)n1` (stereo partly drawn) [Example 87, 2-((1R)-7-(4-bromo-3-fluorophenoxy)-1-methyl-6-((tetrahydro-2H-pyran-2-yl)methoxy)-1,2,3,4-tetrahydroisoquinolin-1-yl)-N-(6-methoxypyridin-2-yl)acetamide], the IC50 on PCSK9 [1] stood at 1.4 nM. The ΔTm at 300 µM on PCSK9 [2] worked out at 6.57 °C.

Consider `C[C@]1(CC(=O)Nc2cccnn2)NCCc2cc(OCC3CCCCO3)c(Oc3ccc(Br)c(F)c3)cc21` (stereo partly drawn) [Example 88, 2-((1R)-7-(4-bromo-3-fluorophenoxy)-1-methyl-6-((tetrahydro-2H-pyran-2-yl)methoxy)-1,2,3,4-tetrahydroisoquinolin-1-yl)-N-(pyridazin-3-yl)acetamide], for which, on PCSK9 [1], the IC50 is 1.6 nM. On PCSK9 [2], the ΔTm at 300 µM was 5.51 °C.

For the compound `COC(=O)c1ccc(-c2ccc(Oc3cc4c(cc3OCC3CCCCO3)CCN[C@]4(C)CC(=O)Nc3cccc(OC)c3)cc2F)cc1` (stereo partly drawn) [Example 89, methyl 2′-fluoro-4′-(((1R)-1-(2-((3-methoxyphenyl)amino)-2-oxoethyl)-1-methyl-6-((tetrahydro-2H-pyran-2-yl)methoxy)-1,2,3,4-tetrahydroisoquinolin-7-yl)oxy)-[1,1′-biphenyl]-4-carboxylate], at PCSK9 [1], the IC50 came out at 2.76 nM. Further, at PCSK9 [2], the ΔTm at 300 µM amounted to 5.98 °C.

For the compound `COc1cccc(NC(=O)C[C@@]2(C)NCCc3cc(OCC4CCCCO4)c(Oc4ccc(-c5ccc(C(=O)O)cc5)c(F)c4)cc32)n1` (stereo partly drawn) [Example 90, 2′-fluoro-4′-(((1R)-1-(2-((6-methoxypyridin-2-yl)amino)-2-oxoethyl)-1-methyl-6-((tetrahydro-2H-pyran-2-yl)methoxy)-1,2,3,4-tetrahydroisoquinolin-7-yl)oxy)-[1,1′-biphenyl]-4-carboxylic acid], the IC50 at PCSK9 [1] came out at 109 nM. Also, the ΔTm at 300 µM on PCSK9 [2] was 8.59 °C.

Turning to `C[C@]1(CC(=O)Nc2cccnn2)NCCc2cc(OCC3CCCCO3)c(Oc3ccc(-c4ccc(C(=O)O)cc4)c(F)c3)cc21` (stereo partly drawn) [Example 91, 2′-fluoro-4′-(((1R)-1-methyl-1-(2-oxo-2-(pyridazin-3-ylamino)ethyl)-6-((tetrahydro-2H-pyran-2-yl)methoxy)-1,2,3,4-tetrahydroisoquinolin-7-yl)oxy)-[1,1′-biphenyl]-4-carboxylic acid], on PCSK9 [1], the IC50 amounted to 860 nM. For the same compound, the ΔTm at 300 µM on PCSK9 [2] stood at 7.19 °C.

Turning to `C[C@]1(CC(=O)Nc2cccc3[nH]ccc23)NCCc2cc(OCC3CCCCO3)c(Oc3ccc(-c4ccc(C(=O)O)cc4)c(F)c3)cc21` (stereo partly drawn) [Example 92, 4′-(((1R)-1-(2-((1H-indol-4-yl)amino)-2-oxoethyl)-1-methyl-6-((tetrahydro-2H-pyran-2-yl)methoxy)-1,2,3,4-tetrahydroisoquinolin-7-yl)oxy)-2′-fluoro-[1,1′-biphenyl]-4-carboxylic acid], the IC50 on PCSK9 [1] was determined as 958 nM. Moreover, the ΔTm at 300 µM on PCSK9 [2] turned out to be 7.28 °C.

With `COC(=O)c1cc(-c2cc3c(cc2OC)CCN[C@]3(C)CC(=O)Nc2nccs2)ccc1F` [Example 109, methyl (R)-2-fluoro-5-(6-methoxy-1-methyl-1-(2-oxo-2-(thiazol-2-ylamino)ethyl)-1,2,3,4-tetrahydroisoquinolin-7-yl)benzoate], the IC50 on PCSK9 [1] turned out to be 664 nM. For the same compound, the ΔTm at 300 µM at PCSK9 [2] was found to be 6.02 °C.

Regarding `CC1(CC(=O)Nc2nccs2)NCCc2cc(OCC3CCCCO3)c(-c3ccc(F)c(C(=O)O)c3)cc21` (stereo not shown) [Example 110, 2-fluoro-5-(1-methyl-1-(2-oxo-2-(thiazol-2-ylamino)ethyl)-6-((tetrahydro-2H-pyran-2-yl)methoxy)-1,2,3,4-tetrahydroisoquinolin-7-yl)benzoic acid], at PCSK9 [1], the IC50 was found to be 0.98 nM. On PCSK9 [2], the ΔTm at 300 µM stood at 6.7 °C.

Consider `COC(=O)c1cc(-c2cc3c(cc2OCC2CCCCO2)CCNC3(C)CC(=O)Nc2nccs2)ccc1F` (stereo not shown) [Example 111, methyl 2-fluoro-5-(1-methyl-1-(2-oxo-2-(thiazol-2-ylamino)ethyl)-6-((tetrahydro-2H-pyran-2-yl)methoxy)-1,2,3,4-tetrahydroisoquinolin-7-yl)benzoate], for which, on PCSK9 [1], the IC50 was determined as 1.55 nM. For the same compound, the ΔTm at 300 µM on PCSK9 [2] was found to be 6.27 °C.

For the origin of these results see US11008313B2, “Substituted 1-methyl-1,2,3,4-tetrahydroisoquinoline molecules as PCSK9 allosteric binders” (Merck Sharp & Dohme Corp., priority 2016, dated 2021).
